Several values for one entry are separate records, joined by “and”; a condition that tells them apart may be missing. Equal entries are not always repeated. Where a SMILES comes first, the peptide text is derived from it. Bridges are numbered along the chain shown (N, C = ends). The star is where a group is joined. DOTA = O=C(O)CN1CCN(CC(=O)O)CCN(CC(=O)*)CCN(CC(=O)O)CC1
Legend:
[1] = Gadolinium in the aortic wall by ICP-MS; format: in vivo, mouse; conditions: ICP-MS of digested aorta after probe administration; individual mice, n = 7
Protocol: The samples were dissolved with 12 ml ultrapure water.

[2] = target: T1, ADAMTS4 in the aortic wall of ApoE−/− mice (Mus musculus, UniProt Q8BNJ2); test: In vivo MRI with negative control probe and ADAMTS4-specific probe; conditions: for CNR post administration, individual animals: d1 = negative control probe, d2 = ADAMTS4-specific probe, 0.13 mmol/kg
T1 construct: from tissue
T1 sequence (Q8BNJ2 209-833): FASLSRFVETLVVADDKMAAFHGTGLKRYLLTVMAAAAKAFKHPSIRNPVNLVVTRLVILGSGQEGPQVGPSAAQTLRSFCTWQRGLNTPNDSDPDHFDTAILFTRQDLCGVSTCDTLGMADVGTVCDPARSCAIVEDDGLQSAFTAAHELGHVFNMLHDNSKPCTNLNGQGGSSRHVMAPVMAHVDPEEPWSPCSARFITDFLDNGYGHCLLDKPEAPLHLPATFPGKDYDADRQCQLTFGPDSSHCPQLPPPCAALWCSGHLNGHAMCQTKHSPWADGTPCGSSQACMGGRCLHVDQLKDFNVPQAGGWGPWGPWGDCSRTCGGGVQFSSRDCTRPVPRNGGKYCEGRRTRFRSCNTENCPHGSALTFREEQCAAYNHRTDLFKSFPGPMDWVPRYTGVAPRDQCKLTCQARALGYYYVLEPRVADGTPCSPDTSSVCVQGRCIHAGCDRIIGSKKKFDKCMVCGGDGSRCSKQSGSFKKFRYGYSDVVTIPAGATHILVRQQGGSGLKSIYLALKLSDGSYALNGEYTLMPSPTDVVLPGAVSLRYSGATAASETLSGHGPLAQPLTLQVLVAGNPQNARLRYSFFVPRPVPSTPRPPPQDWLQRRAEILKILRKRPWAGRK
Protocol: In vivo MR imaging was performed in 6 ApoE^−/− mice (n = 6): three mice (n = 3) received AngII through the osmotic minipumps, three mice (n = 3) received saline, serving as the control group. MR imaging was performed 4 weeks after minipump implantation. On day 1, a native MR scan was followed by the intravenous injection of the negative control peptide (0.13 mmol/kg) and a subsequent MR scan. 24 h later, mice were imaged prior to and following the intravenous administration of the ADAMTS4-specific probe (0.13 mmol/kg).
Analysis of resulting MR images was performed using OsiriX (version 7.1, OsiriX Foundation, Bernex, Switzerland). All morphometric measurements were conducted on high-resolution MRI images. In order to assess the signal intensities, regions of interest (ROIs) were measured as areas of signal enhancement, which were co-localized with areas of aneurysmal-aortic tissue. For these areas, the CNR was calculated using the following formula: CNR = (Combined vessel-wall and aneurysmal-aortic-tissue-signal − blood-signal)/standard-deviation-signal (noise). The signal of noise was defined as the standard deviation in pixel intensity from an ROI placed in the background air anterior to the aorta.

[3] = Solubility (statement, no method); format: physicochemical; conditions: statement in the discussion

In the case of N=C(N)NCCC[C@@H]1NC(=O)[C@H](CCCNC(=N)N)NC(=O)[C@H](CO)NC(=O)[C@@H](N)CSSC[C@@H](C(=O)N[C@@H](CO)C(=O)NCC(=O)NCC(=O)N[C@@H](CO)C(=O)NCC(=O)NCC(=O)N[C@@H](CCCCNC(=O)CN2CCN(CC(=O)O)CCN(CC(=O)O)CCN(CC(=O)O)CC2)C(=O)NCC(N)=O)NC(=O)CNC1=O (Gd complex, metal not drawn) [ADAMTS4-specific probe] (H-CSRRGCSGGSGGK(DOTA)G-NH2; disulfide 1-6), the “Gd amount in the aortic wall” value [1] is reported as 38.015 ng/kg and 35.695 ng/kg and 62.7086 ng/kg and 32.3631 ng/kg and 8.118 ng/kg and 16.4033 ng/kg and 11.8689 ng/kg, the “increase in MR signal / CNR in the aortic wall, in words” value ([2]; 0.13 mmol/kg i.v., 4 weeks after minipump implantation, n = 6) is reported as “strong and significant increase” and the “CNR post administration, individual animals” value ([2]; AAA (AngII) mice) is reported as 10.87 and 12.24 and 11.33. The “CNR post administration, individual animals” value ([2]; control (c, saline) mice) was 6.48 and 5.75 and 6.1 and the solubility [3] was “high solubility”.

Source: article PMC9126943, “ADAMTS4-specific MR probe to assess aortic aneurysms in vivo using synthetic peptide libraries” (Nature Communications, 2022)
